This is an account of results in patent US20200399238A1, “THERAPEUTIC AURONES” (MIDDLE TENNESSEE STATE UNIVERSITY, priority 2016, published 2020).

Assay [1] deals with rat skeletal muscle cell line, L6. In words: cells. In kind it is cell-based. Conditions: Rattus norvegicus; Table 1; read-out: IC50 Toxicity (L6).
For assay [2], the system named is Trypanosoma cruzi Tulahuen cells expressing beta-galactosidase. Nature of the assay: T. cruzi intracellular assay (beta-galactosidase, L6 host cells). Conditions: Trypanosoma cruzi, TULAHUEN, intracellular assay.
The subject of a further assay is S. cerevisiae. Nature of the assay: Antifungal microdilution broth assay, S. cerevisiae. In kind it is cell-based. As to conditions: Saccharomyces cerevisiae; Table 5. The source says:
(§1) A microdilution broth method (CLSI, Reference Method for Broth Dilution Antifungal Susceptibility Testing of Yeasts, Approved Standard-Third Edition, Clinical Laboratory Standards Institute, Wayne, Pa., 2008) was followed with some modifications for the testing of potential antifungal compounds Corning CellGro RPMI 1640 with glutamine, without bicarbonate buffer, with phenol red (RPMI; Sigma-Aldrich) was used as the base medium for testing. A 1 M solution of morpholinepropanesulfonic acid (MOPS; Sigma-Aldrich) was added to the RPMI to a final concentration of 0.165 M for buffering (RPMI-MOPS). This medium was adjusted to a pH of 7.0 with 10 M NaOH and filter sterilized.
(§2) PrestoBlue® (Life Technologies, Invitrogen, Carlsbad, Calif.), a resazurin-based cell viability reagent that, in metabolically active cells, is reduced from blue, non-fluorescent resazurin, to red, fluorescent resorufin, was used to assess inhibition of yeast growth by the aurones. Reduction of the compound from resazurin to resorufin is proportional to the number of metabolically active cells and can be quantified by measuring relative fluorescence units (RFUs). […]
(§3) IC50 determination was calculated using GraphPad Prism version 7.01 for Windows (GraphPad Software, Inc., La Jolla, Calif.) from the RFUs at dilution points. […]
(Broth dilution looks for growth in wells or tubes with falling amounts of substance.)

A further assay has as its system T. rubrum. In words: Antifungal microdilution broth assay, T. rubrum. Conditions: Trichophyton rubrum; Table 5. The format is cell-based.
From the text: as §1, §2, §3

The subject of a further assay is TNFα. In words: Cytokine response by ELISA, TNFα. The format is cell-based, human. How it is done:
Dexamethasone is a synthetic glucocorticoid that suppresses LPS-induced pro-inflammatory cytokine expression and was used as a control (Abraham, Lawrence et al. 2006). Supernatants were collected for human cytokine ELISAs and the manufacturer's protocol was followed to assess the cytokine response. Cells remaining after the supernatant collection were tested for relative viability by Alamar Blue cytotoxicity assay as previously described.

The next assay has as its system p65 (NF-κB). Nature of the assay: Indirect immunofluorescence for NF-κB nuclear translocation, THP-1. In kind it is cell-based, human. As to conditions: pre-treatment with 50 aurone 1; THP-1, LPS 30 min. The text has this: Bay 11-7082 is a compound that inhibits LPS-induced activation of IKKα/β, thereby suppressing downstream IκBα phosphorylation/degradation and p65 nuclear translocation and was used as a positive control (Catalan, Fernandez-Castillejo et al. 2012). Treated cells were fixed, permeabilized, blocked, and stained with p65 (NF-κB) primary antibody, Dylight 488 conjugated secondary antibody, and Hoechst 33342 dye, sequentially. The Hoechst and DyLight fluorophores detect changes in nuclear morphology (blue fluorescence) and NF-κB distribution (green fluorescence), respectively. Nuclear Translocation Bioapplication software on the Arrayscan VTI reader was used for image acquisition and data analysis (Thermo Fisher Scientific, Waltham, Mass., USA). For each well, at least 400 cells were automatically acquired and analyzed. The translocation index was calculated by measuring the average intensity difference of NF-κB between the identified cytoplasmic region and nuclear region.

Each structure is given as a SMILES string. Like-named read-outs stand apart in the source and are kept apart here.

A word on the IC50: it is the midpoint of a concentration-inhibition curve. In the case of `COc1ccc(/C=C2\Oc3c(ccc(O)c3O)C2=O)cc1O` [Aurone 1009, (Z)-6,7-dihydroxy-2-(3-hydroxy-4-methoxybenzylidene)benzofuran-3(2H)-one], the 50% inhibitory concentration (IC50) in assay [1] was 45 µM; in assay [2] (read-out: IC50 T. cruzi, Table 1, mean of 2(+) trials (^c one trial)), more than 50 µM; in assay [2] (read-out: IC50 T. cruzi, Table 2, mean of 2(+) independent trials), more than 50 µM; with S. cerevisiae it was 26 µM; with T. rubrum, 49 µM.
Usually inhibition stands for the drop in the measured response relative to a control, in per cent. Take `O=C1/C(=C/c2ccc(CO)o2)Oc2ccccc21` [aurone 1]: in the assay on TNFα (Homo sapiens, LPS-stimulated THP-1 cells, 20 μM, mean ± SD, read-out: Average % TNF-α Inhibition), the inhibition at 20 µM stood at 25.3 ± 6.1%. For the same compound, in the assay on TNFα (LPS-stimulated THP-1, ELISA, FIG. 9A, concentration not printed with the value (20-80 μM tested)), the “suppression of TNFα expression” value stood at 93.8%. In addition, in the assay on p65 (NF-κB), the “cytoplasmic-to-nuclear translocation of p65” value is “capable of blocking cytoplasmic-to-nuclear translocation of p65”.
